In brackets after ≈: the same amount, converted by molar mass. Where two headings read alike, the source gives them in different places.
How the values were obtained:
[1] = system: Trichophyton rubrum IFO 5467 (DT-63); test: Antitrichophyton activity, serial dilution method (MIC); assay type: cell-based; conditions: IFO5467, Sabouraud's agar medium
Protocol: (§1) Referring to the antitrichophyton activity shown in Table 7, MIC values of tested compounds were determined by the serial dilution method using Sabouraud's agar medium.

[2] = system: Trichophyton mentagrophytes IFO (DT-66); test: as above; assay type: cell-based; conditions: Sabouraud's agar medium
Protocol: as §1

[3] = system: mouse myeloid leukemia M1 cells; test: Induced differentiation of mouse myeloid leukemia M1 cells; assay type: cell-based; conditions: at optimal dose: C00019 1 μg/ml, drawing 20 2 μg/ml; for Phagocytic cells: None 2.0 %; for Morphological change: None 2.1 %; for Lysozyme activity: None 2.2
Protocol: By employing soft-agar medium having similar components to those in Test Example 1, incubation of myeloid leukemia (M1) cells harvested from mice was conducted in the presence of the test compound in its optimal concentration. Observation on various biological and biochemical properties caused by induced differentiation was conducted. In Table 2 are given the results obtained by determination of the degree of the induced differentiation employing, as the indexes, among those properties, morphological changes (matured granulocytes, matured macrophages, others caused by changes in appearance of cells at the stage of differentiation),phagocytic activity (plastic small pieces.phagocytosis) and lysozyme activity. Additionally stating, these morphological changes were not observed under the conditions devoid of the drugs.

Alternaria solani = test: Antifungal activity, serial dilution method (MIC); assay type: cell-based; conditions: 1% glucose-bouillon agar medium, read-out: MIC Alternaria solani (potato early blight)
Pyricularia oryzae = test: microbe, parasite or virus in culture; assay type: cell-based; conditions: read-out: MIC Pyricularia oryzae (rice blast)
[4] = system: Colletotrichum lagenarium; test: Antifungal activity, serial dilution method (MIC); assay type: cell-based; conditions: Colletotrichum orbiculare, read-out: MIC Colletotrichum lagenarium (cucumber anthracnose)
Leptosphaeria salvinii = test: Antifungal activity, serial dilution method (MIC); assay type: cell-based; conditions: Nakataea oryzae, read-out: MIC Leptosphaeria salvinii (rice stem rot)
Cochliobolus miyabeanus = test: Antifungal activity, serial dilution method (MIC); assay type: cell-based; conditions: Bipolaris oryzae, read-out: MIC Cochliobolus miyabeanus (rice Helminthosporium leaf spot)
Botrytis cinerea = test: Antifungal activity, serial dilution method (MIC); assay type: cell-based; conditions: read-out: MIC Botrytis cinerea (gray mold)
Gibberella fujikuroi = test: Antifungal activity, serial dilution method (MIC); assay type: cell-based; conditions: Fusarium fujikuroi, read-out: MIC Gibberella fujikuroi (rice Bakanae-disease)
[5] = system: human promyelocytic leukemia HL-60 cells; test: Induced differentiation of human promyelocytic leukemia HL-60 cells; assay type: cell-based; conditions: six day incubation; optimal dose: C00021 1 μg/ml, drawing 22 4 μg/ml
Protocol: By employing soft-agar medium, incubation of human promyelocytic leukemia HL-60 cells was conducted in the presence of a drug at its optimal concentration. It was observed that the leukemia HL-60 cells were gradually changing into mature myeloid cells or phagocytic cells as the induced differentiation proceeded. After six day incubation, number of these cells was counted, and the respective ratios (%) relative to the total number of these cells were calculated, as shown in Table 3. Additionally stating, these changes were not observed under the conditions devoid of the drugs.

normal bone marrow cells = test: Growth inhibition of normal mouse bone marrow cells (GD50); assay type: cell-based, mice (SL-strain); conditions: Bone marrow cell, 72 h, 3 days, 37° C., Trypan Blue dye-exclusion, read-out: GD50 Normal mouse bone marrow cells (B)
Protocol: (§2) BALB/c mice at a concentration of 1 μg/ml (Cancer Res. 39, pp. 4681-4686 (1979)). The present inventors conducted comparative tests between octadecyl phospholipid and the corresponding tridecyl compound as well as tetradecyl compound on the activity (GD50) to inhibit the multiplication of spontaneous myeloid leukemia cells M1 in mice. […] The effect on the corresponding normal cells, i.e. on the myeloid cells of normal mice, is far weaker in the tetradecyl compounds. Therefore, in view of the balance of the inhibiting activity against multiplication of tumor cells and the safety (Chemotherapy Coefficient), it can be said that tetradecyl phospholipid is preferable to octadecyl phospholipid.
(§3) By employing Eagle's minimum essential medium supplemented with 10% heat-inactivated calf serum, incubation of spontaneous myeloid leukemia M1 cells (Resistant clone) harvested from mice (SL-strain) and normal bone marrow cells of mice of the same strain was conducted, in the presence or absence of the test compound in various concentrations, in a humified CO2 incubator at 37° C. for 3 days. The number of viable cells was determined by the Trypan Blue Stain dye-exclusion test. The concentration of the tested compound for 50% inhibiting the proliferation of M1 cells or normal bone marrow cells (GD50) was determined, and the result was shown in Table 1.

[6] = system: spontaneous myeloid leukemia M1 cells; test: Growth inhibition of cultured spontaneous mouse myeloid leukemia M1 cells (GD50); assay type: cell-based, mice (SL-strain); conditions: for IC50: Mus musculus, 72 h, 3 days, 37° C., Trypan Blue dye-exclusion, M1 Resistant clone; for B/A (GD50 normal bone marrow cells / GD50 M1 cells): ratio of GD50 values, 4320 min
Protocol: as §2, §3

[7] = 1% glucose-bouillon agar medium

| Compound | MIC (Alternaria solani) [µg/mL] | MIC (Pyricularia oryzae) [µg/mL] | MIC [4, 7] [µg/mL] | MIC (Leptosphaeria salvinii; [7]) [µg/mL] | MIC (Cochliobolus miyabeanus) [µg/mL] | MIC (Gibberella fujikuroi; [7]) [µg/mL] | other results |
| --- | --- | --- | --- | --- | --- | --- | --- |
| CCCCCCCCCCCCCOCC(COP(=O)([O-])OCC[N+](C)(C)C)OC (stereo not drawn) [R = C13 H27, A = drawing 33] |  |  |  |  |  |  | MIC [1]: 3.12 µg/mL (≈ 6.88 µM); MIC [2]: 6.25 µg/mL (≈ 13.8 µM) |
| CCCCCCCCCCCCCCCCCCOCC(COP(=O)([O-])OCC[N+](C)(C)C)OC (stereo not drawn) [drawing 19, reference compound] |  |  |  |  |  |  | Phagocytic cells [3]: 13.4%; Morphological change [3]: 34.7%; Lysozyme activity [3]: 31.1 units/mg protein |
| CCCCCCCCCCCCCOCCCOP(=O)([O-])OCC[N+](C)(C)C [Compound (B) R = C13 H27] | 25 (≈ 59 µM) | 6.25 (≈ 14.8 µM) | 1.56 (≈ 3.68 µM) | 12.5 (≈ 29.5 µM) | 6.25 (≈ 14.8 µM) | 25 (≈ 59 µM) | MIC (Botrytis cinerea): 6.25 µg/mL (≈ 14.8 µM) |
| CCCCCCCCCCCCCCOCC(COP(=O)([O-])OCC[N+](C)(C)C)OC (stereo not drawn) [drawing 22] |  |  |  |  |  |  | Mature myeloid cells [5]: 91.3%; NBT (nitro blue tetrazolium) reduction [5]: 87.0%; Phagocytic cells [5]: 68.2% |
| CCCCCCCCCCCCCCOCC(COP(=O)([O-])OCC[N+](C)(C)C)OC (stereo not drawn) [drawing 18] |  |  |  |  |  |  | IC50 (normal bone marrow cells): 40 µg/mL (≈ 85.5 µM); IC50 [6]: 1.2 µg/mL (≈ 2.57 µM); B/A (GD50 normal bone marrow cells / GD50 M1 cells) [6]: 33 |
| CCCCCCCCCCCCCCOCC(COP(=O)([O-])OCC[N+](C)(C)C)OC (stereo not drawn) [R = C14 H29, A = drawing 35] |  |  |  |  |  |  | MIC [1]: 1.56 µg/mL (≈ 3.34 µM); MIC [2]: 3.12 µg/mL (≈ 6.67 µM) |
| CCCCCCCCCCCCCCCCCCOCCCOP(=O)([O-])OCC[N+](C)(C)C [Compound (B) R = C18 H37, reference compound] | > 100 | 12.5 (≈ 25.3 µM) | > 100 | 50 (≈ 101 µM) | > 100 | > 100 | MIC (Botrytis cinerea; [7]): 25 µg/mL (≈ 50.6 µM) |
| CCCCCCCCCCCCCCCCCCOCC(COP(=O)([O-])OCC[N+](C)(C)C)OC (stereo not drawn) [drawing 21, reference compound] |  |  |  |  |  |  | Mature myeloid cells [5]: 43.0%; NBT (nitro blue tetrazolium) reduction [5]: 47.8%; Phagocytic cells [5]: 39.8% |
| CCCCCCCCCCCCOCC(COP(=O)([O-])OCC[N+](C)(C)C)OC (stereo not drawn) [R = C12 H25, A = drawing 32, reference compound] |  |  |  |  |  |  | MIC [1]: 6.25 µg/mL (≈ 14.2 µM); MIC [2]: 25 µg/mL (≈ 56.9 µM) |
| CCCCCCCCCCCCCCOCC(COP(=O)([O-])OCC[N+](C)(C)C)OC (stereo not drawn) [drawing 20] |  |  |  |  |  |  | Phagocytic cells [3]: 25.9%; Morphological change [3]: 53.4%; Lysozyme activity [3]: 80.1 units/mg protein |
| CCCCCCCCCCCCCCOCC(COP(=O)([O-])OCC[n+]1ccccc1)OC (stereo not drawn) [R = C14 H29, A = drawing 36] |  |  |  |  |  |  | MIC [1]: 1.56 µg/mL (≈ 3.2 µM); MIC [2]: 3.12 µg/mL (≈ 6.4 µM) |
| CCCCCCCCCCCCCCCCCCOCC(COP(=O)([O-])OCC[N+](C)(C)C)OC (stereo not drawn) [Compound (A) R = C18 H37, reference compound] | > 100 | 6.25 (≈ 11.9 µM) | > 100 | 12.5 (≈ 23.9 µM) | > 100 | > 100 | MIC (Botrytis cinerea; [7]): 25 µg/mL (≈ 47.7 µM) |
| CCCCCCCCCCCCCOCC(COP(=O)([O-])OCC[n+]1ccccc1)OC (stereo not drawn) [R = C13 H27, A = drawing 34] |  |  |  |  |  |  | MIC [1]: 3.12 µg/mL (≈ 6.59 µM); MIC [2]: 12.5 µg/mL (≈ 26.4 µM) |
| CCCCCCCCCCCCCCOCCCOP(=O)([O-])OCC[N+](C)(C)C [Compound (B) R = C14 H29] | 50 (≈ 114 µM) | 6.25 (≈ 14.3 µM) |  |  | 12.5 (≈ 28.6 µM) |  | MIC [4]: 6.25 µg/mL (≈ 14.3 µM); MIC (Leptosphaeria salvinii): 6.25 µg/mL (≈ 14.3 µM); MIC (Botrytis cinerea): 6.25 µg/mL (≈ 14.3 µM); MIC (Gibberella fujikuroi): 12.5 µg/mL (≈ 28.6 µM) |
| CCCCCCCCCCCCCCOCC(COP(=O)([O-])OCC[N+](C)(C)C)OC (stereo not drawn) [Compound (A) R = C14 H29] | 100 (≈ 214 µM) | 3.12 (≈ 6.67 µM) | 25 (≈ 53.5 µM) |  | 12.5 (≈ 26.7 µM) | 25 (≈ 53.5 µM) | MIC (Leptosphaeria salvinii): 3.12 µg/mL (≈ 6.67 µM); MIC (Botrytis cinerea; [7]): 6.25 µg/mL (≈ 13.4 µM) |
| CCCCCCCCCCCCCCCCCCOCC(COP(=O)([O-])OCC[N+](C)(C)C)OC (stereo not drawn) [drawing 17, reference compound] |  |  |  |  |  |  | IC50 (normal bone marrow cells): 15 µg/mL (≈ 28.6 µM); IC50 [6]: 0.6 µg/mL (≈ 1.15 µM); B/A (GD50 normal bone marrow cells / GD50 M1 cells) [6]: 25 |
| CCCCCCCCCCCCCOCC(COP(=O)([O-])OCC[N+](C)(C)C)OC (stereo not drawn) [Compound (A) R = C13 H27] | 50 (≈ 110 µM) | 12.5 (≈ 27.6 µM) | 6.25 (≈ 13.8 µM) | 6.25 (≈ 13.8 µM) | > 100 | > 100 | MIC (Botrytis cinerea): 12.5 µg/mL (≈ 27.6 µM) |
| CCCCCCCCCCCCOCCCOP(=O)([O-])OCC[N+](C)(C)C [Compound (B) R = C12 H25, reference compound] | 50 (≈ 122 µM) | 12.5 (≈ 30.5 µM) |  | 25 (≈ 61 µM) | 6.25 (≈ 15.3 µM) | 100 (≈ 244 µM) | MIC [4]: 6.25 µg/mL (≈ 15.3 µM); MIC (Botrytis cinerea; [7]): 25 µg/mL (≈ 61 µM) |
| CCCCCCCCCCCCOCC(COP(=O)([O-])OCC[N+](C)(C)C)OC (stereo not drawn) [Compound (A) R = C12 H25, reference compound] | 50 (≈ 114 µM) | 25 (≈ 56.9 µM) | 12.5 (≈ 28.4 µM) | 25 (≈ 56.9 µM) | > 100 | > 100 | MIC (Botrytis cinerea; [7]): 50 µg/mL (≈ 114 µM) |

From patent US4544512A, “Tridecyloxy- or tetradecyloxy-propane derivatives” (Takeda Chemical Industries, Ltd., priority 1980, dated 1985)
